Measurements: patent US20210045385A1, “PYRIDAZINONE-SUBSTITUTED KETOXIMES AS HERBICIDES” (FMC Corporation, priority 2018, published 2021)

Legend:
Assay type in all cases: in vivo
kochia (Kochia scoparia) [1] = test: Test A preemergence, visual plant response rating; details: for Kochia plant response rating: 125 g ai/ha, preemergence, 0 to 100 scale, 0 no effect, 100 complete control; for Kochia plant response rating (0 to 100 scale): 500 g ai/ha Preemergence, approx. 10 days
How it was run: (§1)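 Greenhouse evaluation, approx. 10 days post-spray. Soil: loam + sand. Postemergence stage: 1–2 leaves, height 2–10 cm. Vehicle: non-phytotoxic solvent blend with surfactant. Score: visual injury on a 0 (no effect) to 100 (complete control) scale.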

[2] = tested on: foxtail, giant (giant foxtail, Setaria faberii); test: Test A preemergence, visual plant response rating; details: for Foxtail, Giant plant response rating: 125 g ai/ha, preemergence, 0 to 100 scale, 0 no effect, 100 complete control; for Foxtail, Giant plant response rating (0 to 100 scale): 500 g ai/ha Preemergence, approx. 10 days
How it was run: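 Preemergence: seeds in loam/sand blend given directed soil spray of compound in non-phytotoxic solvent with surfactant. Postemergence: plants 2–10 cm, one- to two-leaf stage, sprayed with same formulation. Visual injury rated vs untreated controls after ~10 days in greenhouse, 0 (no effect) to 100 (complete control).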

[3] = tested on: barnyardgrass (Echinochloa crus-galli); test: Test A preemergence, visual plant response rating; details: for Barnyardgrass plant response rating: 125 g ai/ha, preemergence, 0 to 100 scale, 0 no effect, 100 complete control; for Barnyardgrass plant response rating (0 to 100 scale): 500 g ai/ha Preemergence, approx. 10 days
How it was run: as §1

[4] = tested on: pigweed (Amaranthus retroflexus); test: Test A preemergence, visual plant response rating; details: for Pigweed plant response rating: 125 g ai/ha, preemergence, 0 to 100 scale, 0 no effect, 100 complete control; for Pigweed plant response rating (0 to 100 scale): 500 g ai/ha Preemergence, approx. 10 days
How it was run: as §1

[5] = tested on: ragweed (common ragweed, Ambrosia elatior); test: Test A preemergence, visual plant response rating; details: for Ragweed plant response rating: 125 g ai/ha, preemergence, 0 to 100 scale, 0 no effect, 100 complete control; for Ragweed plant response rating (0 to 100 scale): 500 g ai/ha Preemergence, approx. 10 days
How it was run: as §1

[6] = tested on: Italian ryegrass (Lolium multiflorum); test: Test A preemergence, visual plant response rating; details: for Ryegrass, Italian plant response rating: 125 g ai/ha, preemergence, 0 to 100 scale, 0 no effect, 100 complete control; for Ryegrass, Italian plant response rating (0 to 100 scale): 500 g ai/ha Preemergence, approx. 10 days
How it was run: as §1

[7] = tested on: sedge, umbrella (small-flower umbrella sedge, Cyperus difformis); test: Test B flooded paddy test, visual plant response rating; details: 250 g ai/ha, Flood, applied to paddy water, 2-leaf stage, evaluated after 13 to 15 days
How it was run: (§2)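 Plants were raised to the 2-leaf stage, then pots were flooded to 3 cm above the soil and test compound was applied directly into the paddy water. Water depth was held for the whole test; after 13 to 15 days in a greenhouse, responses were scored visually against controls.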

rice (Oryza sativa) = test: as above; details: 250 g ai/ha, Flood, applied to paddy water, 2-leaf stage, evaluated after 13 to 15 days
How it was run: as §2

[8] = tested on: barnyardgrass (Echinochloa crus-galli); test: as above; details: 250 g ai/ha, Flood, applied to paddy water, 2-leaf stage, evaluated after 13 to 15 days
How it was run: as §2

[9] = tested on: ducksalad (Heteranhera limosa); test: as above; details: 250 g ai/ha, Flood, applied to paddy water, 2-leaf stage, evaluated after 13 to 15 days
How it was run: as §2

[10] = tested on: galium (catchweed bedstraw, Galium aparine); test: Test A postemergence, visual plant response rating; details: for Galium plant response rating (0 to 100 scale): 500 g ai/ha, postemergence, 0 is no effect, 100 is complete control; for Galium plant response rating: Postemergence, 125 g ai/ha, 0 to 100 scale (0 no effect, 100 complete control)
How it was run: as §1

[11] = tested on: wheat (Triticum aestivum); test: Test A postemergence, visual plant response rating; details: for Wheat plant response rating (0 to 100 scale): 500 g ai/ha, postemergence, 0 is no effect, 100 is complete control; for Wheat plant response rating: Postemergence, 125 g ai/ha, 0 to 100 scale (0 no effect, 100 complete control)
How it was run: as §1

kochia (Kochia scoparia) [12] = test: Test A postemergence, visual plant response rating; details: for Kochia plant response rating (0 to 100 scale): 500 g ai/ha, postemergence, 0 is no effect, 100 is complete control; for Kochia plant response rating: Postemergence, 125 g ai/ha, 0 to 100 scale (0 no effect, 100 complete control)
How it was run: as §1

[13] = tested on: foxtail, giant (giant foxtail, Setaria faberii); test: Test A postemergence, visual plant response rating; details: for Foxtail, Giant plant response rating (0 to 100 scale): 500 g ai/ha, postemergence, 0 is no effect, 100 is complete control; for Foxtail, Giant plant response rating: Postemergence, 125 g ai/ha, 0 to 100 scale (0 no effect, 100 complete control)
How it was run: as §1

[14] = tested on: blackgrass (Alopecurus myosuroides); test: Test A postemergence, visual plant response rating; details: for Blackgrass plant response rating (0 to 100 scale): 500 g ai/ha, postemergence, 0 is no effect, 100 is complete control; for Blackgrass plant response rating: Postemergence, 125 g ai/ha, 0 to 100 scale (0 no effect, 100 complete control)
How it was run: as §1

corn (Zea mays) = test: Test A postemergence, visual plant response rating; details: for Corn plant response rating (0 to 100 scale): 500 g ai/ha, postemergence, 0 is no effect, 100 is complete control; for Corn plant response rating: Postemergence, 125 g ai/ha, 0 to 100 scale (0 no effect, 100 complete control)
How it was run: as §1

[15] = tested on: barnyardgrass (Echinochloa crus-galli); test: Test A postemergence, visual plant response rating; details: for Barnyardgrass plant response rating (0 to 100 scale): 500 g ai/ha, postemergence, 0 is no effect, 100 is complete control; for Barnyardgrass plant response rating: Postemergence, 125 g ai/ha, 0 to 100 scale (0 no effect, 100 complete control)
How it was run: as §1

[16] = tested on: pigweed (Amaranthus retroflexus); test: Test A postemergence, visual plant response rating; details: for Pigweed plant response rating (0 to 100 scale): 500 g ai/ha, postemergence, 0 is no effect, 100 is complete control; for Pigweed plant response rating: Postemergence, 125 g ai/ha, 0 to 100 scale (0 no effect, 100 complete control)
How it was run: as §1

[17] = tested on: ragweed (common ragweed, Ambrosia elatior); test: Test A postemergence, visual plant response rating; details: for Ragweed plant response rating (0 to 100 scale): 500 g ai/ha, postemergence, 0 is no effect, 100 is complete control; for Ragweed plant response rating: Postemergence, 125 g ai/ha, 0 to 100 scale (0 no effect, 100 complete control)
How it was run: as §1

[18] = tested on: Italian ryegrass (Lolium multiflorum); test: Test A postemergence, visual plant response rating; details: for Ryegrass, Italian plant response rating (0 to 100 scale): 500 g ai/ha, postemergence, 0 is no effect, 100 is complete control; for Ryegrass, Italian plant response rating: Postemergence, 125 g ai/ha, 0 to 100 scale (0 no effect, 100 complete control)
How it was run: as §1

Compound | Kochia plant response rating (kochia (Kochia scoparia) [1]) | Kochia plant response rating (0 to 100 scale) (kochia (Kochia scoparia) [1]) | Foxtail, Giant plant response rating [2] | Foxtail, Giant plant response rating (0 to 100 scale) [2] | Barnyardgrass plant response rating [3] | Barnyardgrass plant response rating (0 to 100 scale) [3] | Pigweed plant response rating [4] | Pigweed plant response rating (0 to 100 scale) [4] | Ragweed plant response rating [5] | Ragweed plant response rating (0 to 100 scale) [5] | Ryegrass, Italian plant response rating [6] | Ryegrass, Italian plant response rating (0 to 100 scale) [6] | Plant response rating, Sedge, Umbrella (0 to 100 scale, 0 is no effect, 100 is complete control) [7] | Plant response rating, Rice (0 to 100 scale, 0 is no effect, 100 is complete control) (rice (Oryza sativa)) | Plant response rating, Barnyardgrass (0 to 100 scale, 0 is no effect, 100 is complete control) [8] | Plant response rating, Ducksalad (0 to 100 scale, 0 is no effect, 100 is complete control) [9] | Galium plant response rating (0 to 100 scale) [10] | Galium plant response rating [10] | Wheat plant response rating (0 to 100 scale) [11] | Wheat plant response rating [11] | also measured
CON=C(c1cccc(F)c1)c1c(O)c(C)nn(C)c1=O [Compound 64] | 0 | 0 | 0 | 0 | 0 | 0 | 0 | 10 | 10 | 20 | 30 | 60 | 0 | 0 | 0 | 0 | 80 | 70 | 0 | 0 | Kochia plant response rating (0 to 100 scale) (kochia (Kochia scoparia) [12]): 60; Kochia plant response rating (kochia (Kochia scoparia) [12]): 20; Foxtail, Giant plant response rating (0 to 100 scale) [13]: 10; Foxtail, Giant plant response rating [13]: 0; Blackgrass plant response rating (0 to 100 scale) [14]: 20; Blackgrass plant response rating [14]: 0; Corn plant response rating (0 to 100 scale) (corn (Zea mays)): 0; Corn plant response rating (corn (Zea mays)): 0; Barnyardgrass plant response rating (0 to 100 scale) [15]: 20; Barnyardgrass plant response rating [15]: 20; Pigweed plant response rating (0 to 100 scale) [16]: 40; Pigweed plant response rating [16]: 20; Ragweed plant response rating (0 to 100 scale) [17]: 50; Ragweed plant response rating [17]: 20; Ryegrass, Italian plant response rating (0 to 100 scale) [18]: 70; Ryegrass, Italian plant response rating [18]: 50
CCc1cccc(/C(=N\OC)c2c(O)c(C)nn(C)c2=O)c1 [Compound 68] | 10 | 40 | 0 | 20 | 0 | 0 | 50 | 80 | 20 | 50 | 30 | 60 | 0 | 0 | 0 | 0 | 70 | 60 | 0 | 0 | Kochia plant response rating (0 to 100 scale) (kochia (Kochia scoparia) [12]): 80; Kochia plant response rating (kochia (Kochia scoparia) [12]): 70; Foxtail, Giant plant response rating (0 to 100 scale) [13]: 10; Foxtail, Giant plant response rating [13]: 0; Blackgrass plant response rating (0 to 100 scale) [14]: 30; Blackgrass plant response rating [14]: 30; Corn plant response rating (0 to 100 scale) (corn (Zea mays)): 0; Corn plant response rating (corn (Zea mays)): 0; Barnyardgrass plant response rating (0 to 100 scale) [15]: 0; Barnyardgrass plant response rating [15]: 0; Pigweed plant response rating (0 to 100 scale) [16]: 80; Pigweed plant response rating [16]: 30; Ragweed plant response rating (0 to 100 scale) [17]: 90; Ragweed plant response rating [17]: 70; Ryegrass, Italian plant response rating (0 to 100 scale) [18]: 30; Ryegrass, Italian plant response rating [18]: 20
CO/N=C(\c1ccc(C)o1)c1c(O)c(C)nn(C)c1=O [Compound 53] | 0 | 0 | 0 | 0 | 0 | 0 | 0 | 0 | 0 | 0 | 0 | 0 | 0 | 0 | 0 | 0 | 0 | 0 | 0 | 0 | Kochia plant response rating (0 to 100 scale) (kochia (Kochia scoparia) [12]): 0; Kochia plant response rating (kochia (Kochia scoparia) [12]): 0; Foxtail, Giant plant response rating (0 to 100 scale) [13]: 90; Foxtail, Giant plant response rating [13]: 10; Blackgrass plant response rating (0 to 100 scale) [14]: 40; Blackgrass plant response rating [14]: 10; Corn plant response rating (0 to 100 scale) (corn (Zea mays)): 30; Corn plant response rating (corn (Zea mays)): 0; Barnyardgrass plant response rating (0 to 100 scale) [15]: 70; Barnyardgrass plant response rating [15]: 10; Pigweed plant response rating (0 to 100 scale) [16]: 0; Pigweed plant response rating [16]: 0; Ragweed plant response rating (0 to 100 scale) [17]: 0; Ragweed plant response rating [17]: 0; Ryegrass, Italian plant response rating (0 to 100 scale) [18]: 90; Ryegrass, Italian plant response rating [18]: 20
